Data from US20260317313A1, “DNA Polymerase Theta Inhibitors Containing Non-Saturated 5-Membered Heterocyclic Rings and Use Thereof” (Thomas Jefferson University, priority 2022, published 2026).

What follows are molecules tested against T1, recombinant human Polq polymerase domain (residues 1792-2590) (Homo sapiens, UniProt O75417) (assay: Cy5 fluorescence assay of Polq polymerase enzymatic activity). Settings: 5 nM Polq polymerase domain, 60 nM primer-template, 50 uM dNTPs, 37° C., 18 min, 2.5% DMSO, triplicate; read-out: Polq IC50.
T1 sequence (O75417 1792-2590): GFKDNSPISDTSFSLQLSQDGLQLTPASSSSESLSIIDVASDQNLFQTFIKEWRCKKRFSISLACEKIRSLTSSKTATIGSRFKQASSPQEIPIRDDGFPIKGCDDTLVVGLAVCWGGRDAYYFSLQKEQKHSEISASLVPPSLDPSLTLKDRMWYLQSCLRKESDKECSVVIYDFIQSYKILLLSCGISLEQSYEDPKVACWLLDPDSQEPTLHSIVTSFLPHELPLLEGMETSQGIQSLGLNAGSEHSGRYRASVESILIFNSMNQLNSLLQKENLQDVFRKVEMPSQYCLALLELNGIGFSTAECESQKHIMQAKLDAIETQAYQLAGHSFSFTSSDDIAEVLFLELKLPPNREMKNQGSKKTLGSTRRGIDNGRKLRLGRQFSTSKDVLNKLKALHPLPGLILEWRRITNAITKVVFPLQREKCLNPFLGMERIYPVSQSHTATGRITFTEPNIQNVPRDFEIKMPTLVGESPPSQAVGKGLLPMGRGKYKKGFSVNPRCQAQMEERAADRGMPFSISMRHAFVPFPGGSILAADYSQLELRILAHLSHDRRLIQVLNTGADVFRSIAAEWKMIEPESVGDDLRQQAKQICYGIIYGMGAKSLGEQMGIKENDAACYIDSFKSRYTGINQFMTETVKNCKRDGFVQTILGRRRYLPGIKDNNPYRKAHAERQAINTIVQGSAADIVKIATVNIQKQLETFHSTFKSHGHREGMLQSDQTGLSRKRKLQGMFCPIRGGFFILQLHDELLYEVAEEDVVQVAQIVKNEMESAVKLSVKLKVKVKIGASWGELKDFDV
Type: biochemical
Procedure: The following Cy5 fluorescence assay was used to measure the ability of compounds to inhibit Polq polymerase domain in vitro. The fluorescent based assay was performed as follows: 60 nM of the pre-annealed primer-template containing a 5′ Cy5 fluorophore conjugated template strand (SEQ ID NO 6: 5′-/5Cy5/ […] GGACAG-3′), a downstream complementary oligo conjugated with a 3′ Blackhole quencher (SEQ ID NO 7: 5′-CTAAGCTCACAGTG/3IAbRQSp/-3′) and a primer strand (SEQ ID NO 8: 5′-CTGTCCTGCATGATG-3′) was mixed with 50 uM 2′-deoxyribonucleoside triphosphates (dNTPs), 0.1 mg/mL Bovine serum albumin (BSA), 0.01% NP-40, 10% glycerol, 1 mM dithiothreitol (DTT), 10 mM MgCl2, 25 mM TrisHCl pH 7.8 in the presence of 2.5% DMSO with or without various concentrations (7-point dilution series) of Polq small molecule inhibitors represented by Formula I at 37° C. in a volume of 40 μL.

Compound	IC50 [nM]
N#CCN(C(=O)Oc1c(-n2cc[nH]c2=O)cc(C(F)(F)F)cc1C(F)(F)F)c1ccc(F)cc1 [Example 20, 2-(2-oxo-2,3-dihydro-1H-imidazol-1-yl)-4,6-bis(trifluoromethyl)phenyl N-(cyanomethyl)-N-(4-fluorophenyl)carbamate]	439
CC(C)(C)OC(=O)n1ccn(-c2cc(C(F)(F)F)cc(C(F)(F)F)c2OC(=O)N(CC#N)c2ccc(F)cc2)c1=O [Example 19, tert-butyl 3-(2-{[(cyanomethyl)(4-fluorophenyl)carbamoyl]oxy}-3,5-bis(trifluoromethyl)phenyl)-2-oxo-2,3-dihydro-1H-imidazole-1-carboxylate]	295
[2H]C([2H])([2H])N(C(=O)Cc1c(-c2cn[nH]c2)cc(C(F)(F)F)cc1C(F)(F)F)c1ccc(F)cc1 [Example 23, N-(4-fluorophenyl)-N-(methyl-d3)-2-[2-(1H-pyrazol-4-yl)-4,6-bis(trifluoromethyl)phenyl]acetamide]	46.8

Same assay, conditions: Polq IC50, 5 nM Polq polymerase domain, 60 nM primer-template, 50 uM dNTPs, 37° C., 18 min, 2.5% DMSO, triplicate

Compound	IC50 [nM]
[2H]C([2H])([2H])N(C(=O)Oc1c(-n2cncn2)cc(C(F)(F)F)cc1C(F)(F)F)c1ccc(F)cc1 [Example 32, 2-(1H-1,2,4-triazol-1-yl)-4,6-bis(trifluoromethyl)phenyl N-(4-fluorophenyl)-N-(methyl-d3)carbamate]	18
[2H]C([2H])([2H])N(C(=O)Oc1c(-c2cn(C3C[C@@H](O)[C@@H](O)C3)nn2)cc(C(F)(F)F)cc1C(F)(F)F)c1ccc(F)cc1 (mixture of isomers) [Example 12, 2-{1-[(3R,4S)-3,4-dihydroxycyclopentyl]-1H-1,2,3-triazol-4-yl}-4,6-bis(trifluoromethyl)phenyl N-(4-fluorophenyl)-(methyl-d3)carbamate (Racemate)]	2.2
[2H]C([2H])([2H])N(C(=O)Oc1c(-c2cn(CC(O)CN(C)C)nn2)cc(C(F)(F)F)cc1C(F)(F)F)c1ccc(F)cc1 (centres unmarked) [Example 30, 2-{1-[3-(dimethylamino)-2-hydroxypropyl]-1H-1,2,3-triazol-4-yl}-4,6-bis(trifluoromethyl)phenyl N-(4-fluorophenyl)-N-(methyl-d3)carbamate]	1.6
CN(C(=O)Oc1c(-c2cn(CCCCCCCCC(=O)Nc3cccc4c3C(=O)N(C3CCC(=O)NC3=O)C4=O)nn2)cc(C(F)(F)F)cc1C(F)(F)F)c1ccc(F)cc1 (centres unmarked) [Example 7, 2-(1-(9-((2-(2,6-dioxopiperidin-3-yl)-1,3-dioxoisoindolin-4-yl)amino)-9-oxononyl)-1H-1,2,3-triazol-4-yl)-4,6-bis(trifluoromethyl)phenyl (4-fluorophenyl) (methyl)carbamate]	5.8
[2H]C([2H])([2H])N(C(=O)Oc1c(-c2nnco2)cc(C(F)(F)F)cc1C(F)(F)F)c1ccc(F)cc1 [Example 31, 2-(1,3,4-oxadiazol-2-yl)-4,6-bis(trifluoromethyl)phenyl N-(4-fluorophenyl)-N-(methyl-d3)carbamate]	5.6
[2H]C([2H])([2H])N(C(=O)Oc1c(-c2cn(C3C[C@@H](O)[C@@H](O)C3)nn2)cc(C(F)(F)F)cc1C(F)(F)F)c1ccc(F)cc1 (mixture of isomers) [Example 13, 2-{1-[(3R,4S)-3,4-dihydroxycyclopentyl]-1H-1,2,3-triazol-4-yl}-4,6-bis(trifluoromethyl)phenyl N-(4-fluorophenyl)-(methyl-d3)carbamate (Racemate)]	4.6
CN(C(=O)Oc1c(-c2cn(CCCCCC(=O)Nc3cccc4c3C(=O)N(C3CCC(=O)NC3=O)C4=O)nn2)cc(C(F)(F)F)cc1C(F)(F)F)c1ccc(F)cc1 (centres unmarked) [Example 4, 2-(1-(6-((2-(2,6-dioxopiperidin-3-yl)-1,3-dioxoisoindolin-4-yl)amino)-6-oxohexyl)-1H-1,2,3-triazol-4-yl)-4,6-bis(trifluoromethyl)phenyl (4-fluorophenyl) (methyl)carbamate]	5.5
[2H]C([2H])([2H])N(C(=O)Oc1c(-c2cnn(CC(O)CN(C)C)c2)cc(C(F)(F)F)cc1C(F)(F)F)c1ccc(F)cc1 (centres unmarked) [Example 25, 2-{1-[3-(dimethylamino)-2-hydroxypropyl]-1H-pyrazol-4-yl}-4,6-bis(trifluoromethyl)phenyl N-(4-fluorophenyl)-N-(methyl-d3)carbamate]	24
CN(C(=O)Oc1c(-c2cn(CCOCCOCCC(=O)O)nn2)cc(C(F)(F)F)cc1C(F)(F)F)c1ccc(F)cc1 [Example 36, 3-(2-(2-(4-(2-(((4-fluorophenyl)(methyl)carbamoyl)oxy)-3,5-bis(trifluoromethyl)phenyl)-1H-1,2,3-triazol-1-yl)ethoxy)ethoxy)propanoic Acid]	3
Cc1ncsc1-c1ccc(CNC(=O)[C@@H]2C[C@@H](O)CN2C(=O)[C@@H](NC(=O)CCOCCOCCn2cc(-c3cc(C(F)(F)F)cc(C(F)(F)F)c3OC(=O)N(C)c3ccc(F)cc3)nn2)C(C)(C)C)cc1 [Example 37, 2-(1-(2-(2-(3-(((S)-1-((2S,4R)-4-hydroxy-2-((4-(4-methylthiazol-5-yl)benzyl)carbamoyl)pyrrolidin-1-yl)-3,3-dimethyl-1-oxobutan-2-yl)amino)-3-oxopropoxy)ethoxy)ethyl)-1H-1,2,3-triazol-4-yl)-4,6-bis(trifluoromethyl)phenyl (4-fluorophenyl)(methyl)carbamate]	4.6
[2H]C([2H])([2H])N(C(=O)Oc1c(-c2cn(CC3(O)CNC3)nn2)cc(C(F)(F)F)cc1C(F)(F)F)c1ccc(F)cc1 [Example 15, 2-{1-[(3-hydroxyazetidin-3-yl)methyl]-1H-1,2,3-triazol-4-yl}-4,6-bis(trifluoromethyl)phenyl N-(4-fluorophenyl)-N-(methyl-d3)carbamate]	1.9
CN(C(=O)Oc1c(-c2cn(CCCCC(=O)Nc3cccc4c3C(=O)N(C3CCC(=O)NC3=O)C4=O)nn2)cc(C(F)(F)F)cc1C(F)(F)F)c1ccc(F)cc1 (centres unmarked) [Example 3, 2-(1-(5-((2-(2,6-dioxopiperidin-3-yl)-1,3-dioxoisoindolin-4-yl)amino)-5-oxopentyl)-1H-1,2,3-triazol-4-yl)-4,6-bis(trifluoromethyl)phenyl (4-fluorophenyl) (methyl)carbamate]	3.3
CN(C(=O)Oc1c(-c2cn(C3CC(O)C3)nn2)cc(C(F)(F)F)cc1C(F)(F)F)c1ccc(F)cc1 (centres unmarked) [Example 11, 2-[1-(3-hydroxycyclobutyl)-1H-1,2,3-triazol-4-yl]-4,6-bis(trifluoromethyl)phenyl N-(4-fluorophenyl)-N-methylcarbamate]	2
[2H]C([2H])([2H])N(C(=O)Oc1c(-n2cnn(CC(O)CNC)c2=O)cc(C(F)(F)F)cc1C(F)(F)F)c1ccc(F)cc1 (centres unmarked) [Example 35, 2-{1-[2-hydroxy-3-(methylamino)propyl]-5-oxo-4,5-dihydro-1H-1,2,4-triazol-4-yl}-4,6-bis(trifluoromethyl)phenyl N-(4-fluorophenyl)-N-(methyl-d3)carbamate]	104
[2H]C([2H])([2H])N(C(=O)Oc1c(-c2cn(C3CS(=O)(=O)CC3O)nn2)cc(C(F)(F)F)cc1C(F)(F)F)c1ccc(F)c(Cl)c1F (centres unmarked) [Example 24, 2-[1-(4-hydroxy-1,1-dioxo-1λ^6-thiolan-3-yl)-1H-1,2,3-triazol-4-yl]-4,6-bis(trifluoromethyl)phenyl N-(3-chloro-2,4-difluorophenyl)-N-(methyl-d3)carbamate]	13.6
[2H]C([2H])([2H])N(C(=O)Oc1c(-c2cn(CC3(O)CNC3)nn2)cc(C(F)(F)F)cc1C(F)(F)F)c1ccc(F)c(Cl)c1F [Example 16, 2-{1-[(3-hydroxyazetidin-3-yl)methyl]-1H-1,2,3-triazol-4-yl}-4,6-bis(trifluoromethyl)phenyl N-(3-chloro-2,4-difluorophenyl)-N-(methyl-d3)carbamate]	1.5
[2H]C([2H])([2H])N(C(=O)Oc1c(-n2cn[nH]c2=O)cc(C(F)(F)F)cc1C(F)(F)F)c1ccc(F)cc1 [Example 34, 2-(5-oxo-4,5-dihydro-1H-1,2,4-triazol-4-yl)-4,6-bis(trifluoromethyl)phenyl N-(4-fluorophenyl)-N-(methyl-d3)carbamate]	51
